Reference: ChEMBL document CHEMBL1155836, “Discovery of imidazole carboxamides as potent and selective CCK1R agonists” (Bioorg Med Chem Lett, 2008)
Calls of active or inactive are those of the source. The calls are words filed in the database; no cut-off is given here.

The molecules below were run against T1, Gastrin/cholecystokinin type B receptor (Homo sapiens) (UniProt P32239) (assay: Agonist activity against human CCK2 receptor assessed as receptor activation at 10000 nM).
T1 sequence (whole entry): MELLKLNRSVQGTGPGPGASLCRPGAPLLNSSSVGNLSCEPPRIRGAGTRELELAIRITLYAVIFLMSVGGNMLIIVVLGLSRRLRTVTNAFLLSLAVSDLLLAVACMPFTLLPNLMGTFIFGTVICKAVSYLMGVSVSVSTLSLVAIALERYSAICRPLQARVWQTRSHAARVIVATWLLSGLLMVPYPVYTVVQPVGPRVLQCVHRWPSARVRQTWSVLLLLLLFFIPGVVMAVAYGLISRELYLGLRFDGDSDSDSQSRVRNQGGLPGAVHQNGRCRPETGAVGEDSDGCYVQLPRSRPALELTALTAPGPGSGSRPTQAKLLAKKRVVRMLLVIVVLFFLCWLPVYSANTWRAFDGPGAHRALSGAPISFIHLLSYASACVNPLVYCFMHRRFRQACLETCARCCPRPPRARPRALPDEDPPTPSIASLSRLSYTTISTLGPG
Assay type: functional

SMILES	Activity
Cc1ccc(-c2nc(C(=O)N3CCN(c4ccc5ccccc5c4)CC3)cn2-c2cccc(OC(C)C)c2)cc1	< 21%
Cc1ccc(-c2nc(C(=O)N3CCN(c4ccc5ccccc5c4)CC3)cn2-c2cccc(O)c2)cc1	< 21%
COc1cccc(-n2cc(C(=O)N3CCN(c4cnc5ccccc5c4)CC3)nc2-c2ccc(C)cc2)c1	< 20%
COc1cccc(-n2cc(C(=O)N3CCN(c4ccc5ccccc5c4)CC3)nc2-c2ccc(C)cc2)c1	< 21%
COc1cccc(-n2cc(C(=O)N3CCN(c4cccc(Cl)c4)CC3)nc2-c2ccc(C)cc2)c1	< 20%

Now from value to molecule:

Activity	SMILES
< 21%	Cc1ccc(-c2nc(C(=O)N3CCN(c4ccc5ccccc5c4)CC3)cn2-c2cccc(OC(F)(F)F)c2)cc1
< 12%	CCOc1cccc(-n2cc(C(=O)N3CCN(c4ccc5ccccc5c4)CC3)nc2-c2ccc(CC)cc2)c1
< 12%	CCOc1cccc(-n2cc(C(=O)N3CCN(c4ccc5ccccc5c4)CC3)nc2-c2ccc(Cl)cc2)c1
< 20%	COc1cccc(-n2cc(C(=O)N3CCN(c4cc(C(=O)O)c5ccccc5c4)CC3)nc2-c2ccc(C)cc2)c1

Each molecule was assayed against T1, Gastrin/cholecystokinin type B receptor (Homo sapiens) (assay: Agonist activity against human CCK2 receptor).
Assay type: functional

SMILES	Activity
Cc1ccc(-c2nc(C(=O)N3CCN(c4ccc5ccccc5c4)CC3)cn2-c2cccc(OC(C)C)c2)cc1	inactive
Cc1ccc(-c2nc(C(=O)N3CCN(c4ccc5ccccc5c4)CC3)cn2-c2cccc(O)c2)cc1	inactive
COc1cccc(-n2cc(C(=O)N3CCN(c4cnc5ccccc5c4)CC3)nc2-c2ccc(C)cc2)c1	inactive
COc1cccc(-n2cc(C(=O)N3CCN(c4ccc5ccccc5c4)CC3)nc2-c2ccc(C)cc2)c1	inactive
COc1cccc(-n2cc(C(=O)N3CCN(c4cccc(Cl)c4)CC3)nc2-c2ccc(C)cc2)c1	inactive

Continued, values first:

Activity	SMILES
inactive	Cc1ccc(-c2nc(C(=O)N3CCN(c4ccc5ccccc5c4)CC3)cn2-c2cccc(OC(F)(F)F)c2)cc1
inactive	CCOc1cccc(-n2cc(C(=O)N3CCN(c4ccc5ccccc5c4)CC3)nc2-c2ccc(CC)cc2)c1
inactive	CCOc1cccc(-n2cc(C(=O)N3CCN(c4ccc5ccccc5c4)CC3)nc2-c2ccc(Cl)cc2)c1
inactive	COc1cccc(-n2cc(C(=O)N3CCN(c4cc(C(=O)O)c5ccccc5c4)CC3)nc2-c2ccc(C)cc2)c1

The molecules below were run against T2, Gastrin/cholecystokinin type B receptor (Homo sapiens, UniProt P32239) (assay: Inhibition of human CCK2 receptor).
T2 sequence (P32239 whole entry): T1 sequence (whole entry)

IC50	SMILES
> 10000 nM	O=C(O)c1cc(N2CCN(C(=O)c3cn(-c4ccc5c(c4)OCCO5)c(-c4ccc(F)cc4)n3)CC2)cc2ccccc12

The molecules below were run against T3, Cholecystokinin receptor type A (Homo sapiens, UniProt P32238) (assay: Inhibition of human CCK1 receptor).
T3 sequence (P32238 whole entry): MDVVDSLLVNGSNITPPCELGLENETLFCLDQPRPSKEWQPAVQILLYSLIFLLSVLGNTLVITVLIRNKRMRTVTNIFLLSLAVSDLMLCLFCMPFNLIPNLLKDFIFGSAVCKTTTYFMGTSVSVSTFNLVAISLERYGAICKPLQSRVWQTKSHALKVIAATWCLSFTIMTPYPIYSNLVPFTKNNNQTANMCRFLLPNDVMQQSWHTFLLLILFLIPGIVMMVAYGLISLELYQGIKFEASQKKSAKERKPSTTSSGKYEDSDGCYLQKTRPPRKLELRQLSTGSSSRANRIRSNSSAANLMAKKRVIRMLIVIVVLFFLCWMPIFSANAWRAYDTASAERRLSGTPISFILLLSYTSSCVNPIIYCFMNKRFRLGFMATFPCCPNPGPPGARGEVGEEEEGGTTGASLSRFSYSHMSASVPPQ

SMILES	IC50
O=C(O)c1cc(N2CCN(C(=O)c3cn(-c4ccc5c(c4)OCCO5)c(-c4ccc(F)cc4)n3)CC2)cc2ccccc12	0.03 nM
Cc1ccc(-c2nc(C(=O)N3CCN(c4ccc5ccccc5c4)CC3)cn2-c2cccc(OC(C)C)c2)cc1	30 nM
Cc1ccc(-c2nc(C(=O)N3CCN(c4ccc5ccccc5c4)CC3)cn2-c2cccc(O)c2)cc1	22 nM
COc1cccc(-n2cc(C(=O)N3CCN(c4cnc5ccccc5c4)CC3)nc2-c2ccc(C)cc2)c1	1.3 nM
COc1cccc(-n2cc(C(=O)N3CCN(c4ccc5ccccc5c4)CC3)nc2-c2ccc(C)cc2)c1	2.5 nM
COc1cccc(-n2cc(C(=O)N3CCN(c4cccc(Cl)c4)CC3)nc2-c2ccc(C)cc2)c1	14 nM

The remaining molecules from weak to strong by IC50, led by results:

IC50	SMILES
130 nM	Cc1ccc(-c2nc(C(=O)N3CCN(c4ccc5ccccc5c4)CC3)cn2-c2cccc(OC(F)(F)F)c2)cc1
43 nM	CCOc1cccc(-n2cc(C(=O)N3CCN(c4ccc5ccccc5c4)CC3)nc2-c2ccc(CC)cc2)c1
5.6 nM	CCOc1cccc(-n2cc(C(=O)N3CCN(c4ccc5ccccc5c4)CC3)nc2-c2ccc(Cl)cc2)c1
0.14 nM	COc1cccc(-n2cc(C(=O)N3CCN(c4cc(C(=O)O)c5ccccc5c4)CC3)nc2-c2ccc(C)cc2)c1

The molecules below were run against T3, Cholecystokinin receptor type A (assay: Agonist activity against human CCK1 receptor).
Assay type: functional

SMILES	EC50
O=C(O)c1cc(N2CCN(C(=O)c3cn(-c4ccc5c(c4)OCCO5)c(-c4ccc(F)cc4)n3)CC2)cc2ccccc12	0.093 nM
Cc1ccc(-c2nc(C(=O)N3CCN(c4ccc5ccccc5c4)CC3)cn2-c2cccc(OC(C)C)c2)cc1	53 nM
Cc1ccc(-c2nc(C(=O)N3CCN(c4ccc5ccccc5c4)CC3)cn2-c2cccc(O)c2)cc1	82 nM
COc1cccc(-n2cc(C(=O)N3CCN(c4cnc5ccccc5c4)CC3)nc2-c2ccc(C)cc2)c1	1.1 nM
COc1cccc(-n2cc(C(=O)N3CCN(c4ccc5ccccc5c4)CC3)nc2-c2ccc(C)cc2)c1	9.6 nM
COc1cccc(-n2cc(C(=O)N3CCN(c4cccc(Cl)c4)CC3)nc2-c2ccc(C)cc2)c1	74 nM

Now from value to molecule:

EC50	SMILES
3150 nM	Cc1ccc(-c2nc(C(=O)N3CCN(c4ccc5ccccc5c4)CC3)cn2-c2cccc(OC(F)(F)F)c2)cc1
175 nM	CCOc1cccc(-n2cc(C(=O)N3CCN(c4ccc5ccccc5c4)CC3)nc2-c2ccc(CC)cc2)c1
5.5 nM	CCOc1cccc(-n2cc(C(=O)N3CCN(c4ccc5ccccc5c4)CC3)nc2-c2ccc(Cl)cc2)c1
0.078 nM	COc1cccc(-n2cc(C(=O)N3CCN(c4cc(C(=O)O)c5ccccc5c4)CC3)nc2-c2ccc(C)cc2)c1

What follows are molecules tested against T4, Cholecystokinin receptor type A (Homo sapiens) (UniProt P32238) (assay: Agonist activity against human CCK1 receptor assessed as receptor activation at 10000 nM).
T4 sequence (whole entry): T3 sequence (P32238 whole entry)
Assay type: functional

SMILES	Activity
Cc1ccc(-c2nc(C(=O)N3CCN(c4ccc5ccccc5c4)CC3)cn2-c2cccc(OC(C)C)c2)cc1	94%
Cc1ccc(-c2nc(C(=O)N3CCN(c4ccc5ccccc5c4)CC3)cn2-c2cccc(O)c2)cc1	102%
COc1cccc(-n2cc(C(=O)N3CCN(c4cnc5ccccc5c4)CC3)nc2-c2ccc(C)cc2)c1	92%
COc1cccc(-n2cc(C(=O)N3CCN(c4ccc5ccccc5c4)CC3)nc2-c2ccc(C)cc2)c1	99%
COc1cccc(-n2cc(C(=O)N3CCN(c4cccc(Cl)c4)CC3)nc2-c2ccc(C)cc2)c1	89%

Further lines, results first:

Activity	SMILES
66%	Cc1ccc(-c2nc(C(=O)N3CCN(c4ccc5ccccc5c4)CC3)cn2-c2cccc(OC(F)(F)F)c2)cc1
83%	CCOc1cccc(-n2cc(C(=O)N3CCN(c4ccc5ccccc5c4)CC3)nc2-c2ccc(CC)cc2)c1
119%	CCOc1cccc(-n2cc(C(=O)N3CCN(c4ccc5ccccc5c4)CC3)nc2-c2ccc(Cl)cc2)c1
85%	COc1cccc(-n2cc(C(=O)N3CCN(c4cc(C(=O)O)c5ccccc5c4)CC3)nc2-c2ccc(C)cc2)c1
